In article PMC9071858, “Comparative Pharmacokinetics of Seven Major Compounds in Normal and Atherosclerosis Mice after Oral Administration of Simiao Yong'an Decoction” (Evidence-based Complementary and Alternative Medicine : eCAM, 2022):

Tests used:
[1] = Pharmacokinetic study in normal control (NC) mice after oral administration of SMYAD; format: in vivo, mouse; settings: for AUC(0-t) / AUC(0-inf) / Cmax / half-life / Tmax: male, C57BL/6J
Experimental: (§1) Male C57BL/6J mice and ApoE^−/− mice on a C57BL/6 background (7 weeks old, 18–22 g) were purchased from Beijing Vital River Laboratory Animal Technology Co., Ltd. (Beijing, China, Certificate No.: SCXK (Jing) 2016-0006). All the mice were kept in an SPF animal house (Dongzhimen Hospital Affiliated to Beijing University of Chinese Medicine, Certificate No.: SYXK (Jing) 2015-0001) with food and water freely available, 12 h light/dark, and environmental conditions of 22°C–24°C, 50% relative humidity. All protocols of animal experiments were performed in accordance with the National Guidelines for Laboratory Animal Welfare and were approved by the Animal Ethics Committee of Beijing University of Chinese Medicine (NO. BUCM-4-2015071701-3001). High-fat feeding (containing 15% fat and 0.25% cholesterol) was provided by Beijing HFK bioscience CO., LTD. (Beijing, China, Certificate No.: SCXK (Jing) 2014-0018).
(§2) After successful induction of AS model, SMYAD was administered to NC and AS mice by intragastric gavage at the crude drug dose of 35 g/kg/d for seven days. Blood samples were collected from each mouse in heparinized tubes via the postorbital venous plexus veins at 0, 0.25, 0.5, 1, 2, 4, 6, 8, 10, 12, 18, and 24 h after seven days of drug administration. Then blood samples were immediately centrifuged at 3500 rpm at 4°C for 10 min and the plasma was stored at −80°C until use.
(§3) Each plasma sample (100 μL) was mixed with a threefold volume of methanol and 25 μL IS in a 1.5 mL EP tube. Then the mixture was vortexed for 100 seconds and centrifuged at 12,000 rpm for 10 min at 4°C. The supernatant was transferred to another EP tube and evaporated to dryness under a nitrogen vacuum. The residue was reconstituted with 100 μL of 50% methanol and centrifuged at 15,000 rpm for 15 min. Then the supernatant was transferred to sample vials for the LC-MS analysis.
(§4) A Vanquish UHPLC™ system (Thermo Fisher Scientific Inc., USA) was used for the analysis. Samples were separated on an Atlantis T3 column (4.6 mm × 150 mm, 3 μm; Waters, USA). The column temperature was 40°C. The mobile phase, at 0.4 mL/min, consisted of water containing 0.1% formic acid (v/v, A) and methanol (B). The quantitative analysis gradient program was as follows: 0-1 min, 0 B; 1–6 min, 0–100% B; 6–12 min, 100% B; 12–12.1 min, 100%-0 B; 12.1–15 min, 0 B. The injection volume was 5 μL.
(§5) The mass spectrometer Q Exactive HF-X (Thermo Fisher Scientific Inc., USA) system was connected to the UHPLC system via heated electrospray ionization (HESI) and controlled by Xcalibur 4.2 software (Thermo Fisher) that was used for data collection and analysis. The mass spectrometer was operated in a negative ionization mode. The MS parameters were set as follows: probe heater temperature, 350°C; capillary temperature: 320°C; sheath gas (N2) flow rate: 30 arbs; auxiliary gas (N2) flow rate: 10 arbs; spray voltage: 3.2 kV (negative); S-Lens RF level: 55 V; scan mode: full MS (resolution 12000); scan range: m/z 150–1500. The most abundant ions in the spectra were selected for sensitive quantitation ([M-H]^−of chlorogenic acid, angoroside C, liquiritin, isoliquiritigenin, and IS, [M + COOH]^− of harpagide, swertiamarin, and sweroside).
The pharmacokinetic parameters, including maximum plasma concentration (Cmax), time corresponding to Cmax (Tmax), terminal elimination half-life (T1/2), area under plasma concentration-time curve (AUC0–t) and area under the plasma concentration-time curve from 0 to infinity time (AUC0–∞), apparent volume of distribution (Vz/F) and clearance (CLz/F), were calculated using the noncompartment model in DAS 2.0 software package (Shanghai, China). GraphPad prism 6.02 (GraphPad Software, USA) was used in the statistical analysis. All values are expressed as mean ± standard error. For the pharmacokinetic parameter values of the NC and AS groups, Student's t-test was employed for data comparisons. P values <0.05 were considered statistically significant.

[2] = Pharmacokinetic study in atherosclerosis (AS) model ApoE−/− mice after oral administration of SMYAD; format: in vivo, mouse
Experimental: as §1
The AS model was established by a high-fat diet and perivascular carotid collar placement (PCCP) surgery in the ApoE^−/− mice. After a 7-day adaptive feeding, the mice were given a high-fat diet for 2 weeks; before anesthesia, all ApoE^−/− mice were fasted for 12 hours. During the surgery, the right common carotid artery was exposed, and a silicone cannula (length: 2.5 mm, inner diameter: 0.3 mm) was fixed around the carotid artery (external diameter: about 0.5 mm). Penicillin was injected intraperitoneally for 3 days after surgery to prevent infection. High-fat diet continued for 8 weeks after surgery to establish AS model. Biochemical assays and hematoxylin and eosin (HE) staining were used to evaluate whether AS model was successfully established.
as §2, §3, §4
as §5, with “sweroside). […]” for “sweroside).”

[3] = NC mice, plasma, SMYAD intragastric 35 g/kg/d for seven days, mean ± SD, n = 5
[4] = mouse, po, 35 g/kg/day, NC mice, plasma, SMYAD intragastric 35 g/kg/d for seven days, mean ± SD, n = 5, read-out: AUC0–t
[5] = mouse, po, 35 g/kg/day, NC mice, plasma, SMYAD intragastric 35 g/kg/d for seven days, mean ± SD, n = 5, read-out: AUC0–∞
[6] = mouse, po, 35 g/kg/day, NC mice, plasma, SMYAD intragastric 35 g/kg/d for seven days, mean ± SD, n = 5, read-out: C max
[7] = mouse, po, 35 g/kg/day, NC mice, plasma, SMYAD intragastric 35 g/kg/d for seven days, mean ± SD, n = 5, read-out: t 1/2 (converted)
[8] = mouse, po, 35 g/kg/day, NC mice, plasma, SMYAD intragastric 35 g/kg/d for seven days, mean ± SD, n = 5, read-out: t max
[9] = AS mice, plasma, SMYAD intragastric 35 g/kg/d for seven days, mean ± SD, n = 5
[10] = male, ApoE−/− on a C57BL/6 background, mouse, po, 35 g/kg/day, AS mice, plasma, SMYAD intragastric 35 g/kg/d for seven days, mean ± SD, n = 5, read-out: AUC0–t
[11] = male, ApoE−/− on a C57BL/6 background, mouse, po, 35 g/kg/day, AS mice, plasma, SMYAD intragastric 35 g/kg/d for seven days, mean ± SD, n = 5, read-out: AUC0–∞
[12] = male, ApoE−/− on a C57BL/6 background, mouse, po, 35 g/kg/day, AS mice, plasma, SMYAD intragastric 35 g/kg/d for seven days, mean ± SD, n = 5, read-out: C max
[13] = male, ApoE−/− on a C57BL/6 background, mouse, po, 35 g/kg/day, AS mice, plasma, SMYAD intragastric 35 g/kg/d for seven days, mean ± SD, n = 5, read-out: t 1/2 (converted)
[14] = male, ApoE−/− on a C57BL/6 background, mouse, po, 35 g/kg/day, AS mice, plasma, SMYAD intragastric 35 g/kg/d for seven days, mean ± SD, n = 5, read-out: t max
[15] = mouse, in vivo, po, 35 g/kg/day
[16] = male, ApoE−/− on a C57BL/6 background, mouse, in vivo, po, 35 g/kg/day

| SMILES | CLz/F [1, 3] | Vz/F [1, 3] | AUC(0-t) [1, 4] | AUC(0-inf) [1, 5] | Cmax [1, 6] | half-life [1, 7] | Tmax [1, 8] | CLz/F [2, 9] | Vz/F [2, 9] | AUC(0-t) [2, 10] | AUC(0-inf) [2, 11] | Cmax [2, 12] | half-life [2, 13] | Tmax [2, 14] | AUC(0-inf) [1, 15] | AUC(0-t) [1, 15] | Cmax [1, 15] | Tmax [1, 15] | half-life [1, 15] | CLz/F [1, 15] | other results |
| --- | --- | --- | --- | --- | --- | --- | --- | --- | --- | --- | --- | --- | --- | --- | --- | --- | --- | --- | --- | --- | --- |
| O=C(/C=C/c1ccc(O)cc1)c1ccc(O)cc1O [Isoliquiritigenin, isoliquiritigenin] | 558500 ± 73500 µL/min/mg | 198.37 ± 58.53 L/mg | 1040 ± 144 ng·h/mL | 1060 ± 144 ng·h/mL | 175 ± 49 ng/mL | 6.65 ± 1.31 h | 1.9 ± 2.13 h | 62.16 ± 23.35^∗ L/h/mg | 658.87 ± 555.51 L/mg | 502 ± 166 ng·h/mL | 654 ± 251 ng·h/mL | 135 ± 102 ng/mL | 6.01 ± 2.32 h | 0.95 ± 0.6 h |  |  |  |  |  |  | CLz/F ([2]; AS mice, plasma, SMYAD intragastric 35 g/kg/d for seven days, mean ± SD, n = 5, listed as isoliquiritigenin): 62.16 ± 23.35 L/h/mg |
| O=C1C[C@@H](c2ccc(O[C@@H]3O[C@H](CO)[C@@H](O)[C@H](O)[C@H]3O)cc2)Oc2cc(O)ccc21 [Liquiritin, liquiritin] |  |  |  |  |  |  |  |  |  |  |  |  |  |  | 760 ± 334 ng·h/mL | 607 ± 229 ng·h/mL | 132 ± 57.1 ng/mL | 0.75 ± 0.63 h | 17 ± 3.43 h | 979000 ± 515700 µL/min/mg | Vz/F [1, 15]: 565.81 ± 116.60 L/mg; CLz/F ([2]; male, ApoE−/− on a C57BL/6 background, mouse, in vivo): 67.62 ± 33.62 L/h/mg; AUC(0-inf) [2, 16]: 482 ± 137 ng·h/mL; AUC(0-t) [2, 16]: 408 ± 115 ng·h/mL; Cmax [2, 16]: 67.6 ± 33.6 ng/mL; Tmax [2, 16]: 0.75 ± 0.69 h; half-life [2, 16]: 13.5 ± 3.57 h; Vz/F [2, 15]: 887.57 ± 397.82 L/mg |
| O=C(/C=C/c1ccc(O)c(O)c1)O[C@@H]1C[C@](O)(C(=O)O)C[C@@H](O)[C@H]1O [Chlorogenic acid, chlorogenic acid] | 506200 ± 126000 µL/min/mg | 247.01 ± 150.71 L/mg | 1110 ± 419 ng·h/mL | 1260 ± 425 ng·h/mL | 267 ± 72.4 ng/mL | 4.51 ± 1.1 h | 1.13 ± 0.88 h | 13.49 ± 1.81^∗∗ L/h/mg | 302.49 ± 211.89 L/mg | 1560 ± 476 ng·h/mL | 2640 ± 323 ng·h/mL | 1130 ± 970 ng/mL | 21.6 ± 9.16 h | 0.25 h |  |  |  |  |  |  | CLz/F ([2]; AS mice, plasma, SMYAD intragastric 35 g/kg/d for seven days, mean ± SD, n = 5, listed as chlorogenic acid): 13.49 ± 1.81 L/h/mg |
| C=C[C@H]1[C@H](O[C@@H]2O[C@H](CO)[C@@H](O)[C@H](O)[C@H]2O)OC=C2C(=O)OCC[C@H]21 [Sweroside, sweroside] |  |  |  |  |  |  |  |  |  |  |  |  |  |  | 7080 ± 390 ng·h/mL | 6980 ± 382 ng·h/mL | 1790 ± 369 ng/mL | 0.4 ± 0.3 h | 3.81 ± 0.56 h | 82700 ± 4670 µL/min/mg | Vz/F [1, 15]: 16.99 ± 3.78 L/mg; AUC(0-inf) [2, 16]: 8930 ± 2120 ng·h/mL; AUC(0-t) [2, 16]: 7500 ± 1800 ng·h/mL; Cmax [2, 16]: 1590 ± 497 ng/mL; Tmax [2, 16]: 0.9 ± 0.64 h; half-life [2, 16]: 6.56 ± 2.75 h; CLz/F [2, 15]: 4.29 ± 1.55 L/h/mg; Vz/F [2, 15]: 29.99 ± 14.26 L/mg |
